Measured values published in ChEMBL document CHEMBL1201862, “PubChem BioAssay data set” (2004).
Each block holds one compound with its values, some of them ahead of it. Calls of active or inactive are those of the source. Cut-off read from the data, not from the text of the source, for most assays here: actives have a measured IC50 and inactives only a lower limit.

Columns and labels:
[1] = target: Intestinal-type alkaline phosphatase (Mus musculus, UniProt P24822); assay: PubChem AID 488785; assay type: functional
[2] = target: T1, Alkaline phosphatase, tissue-nonspecific isozyme (Homo sapiens, UniProt P05186); assay: TNAP enzyme inhibition by screening hits, dose response, selectivity assay for mouse IAP inhibitor project, biochemical, human TNAP, uHTS hits (AID 488906); assay type: functional
T1 sequence (P05186 whole entry): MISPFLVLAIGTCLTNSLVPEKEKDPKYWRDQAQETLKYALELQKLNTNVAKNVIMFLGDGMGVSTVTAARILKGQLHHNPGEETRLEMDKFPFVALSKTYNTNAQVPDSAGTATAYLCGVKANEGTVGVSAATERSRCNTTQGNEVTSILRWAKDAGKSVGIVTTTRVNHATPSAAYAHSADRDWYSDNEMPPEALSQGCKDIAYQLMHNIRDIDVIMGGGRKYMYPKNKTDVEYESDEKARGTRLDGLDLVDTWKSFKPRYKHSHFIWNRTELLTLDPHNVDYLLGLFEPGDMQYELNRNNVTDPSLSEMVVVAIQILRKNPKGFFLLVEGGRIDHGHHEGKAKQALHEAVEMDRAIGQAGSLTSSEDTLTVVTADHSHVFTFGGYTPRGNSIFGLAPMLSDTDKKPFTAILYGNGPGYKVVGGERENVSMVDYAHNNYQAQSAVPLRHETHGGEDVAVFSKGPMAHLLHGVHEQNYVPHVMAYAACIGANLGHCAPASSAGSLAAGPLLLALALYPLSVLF

[3] = Artemis endonuclease inhibitor potency, dose response, biochemical, fluorescence intensity (AID 720701); assay type: functional;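 note: Artemis endonuclease enzyme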
[4] = target: Intestinal-type alkaline phosphatase (Homo sapiens, UniProt P09923); assay: activation of human intestinal alkaline phosphatase – biochemical, dose response (AID 488873); assay type: functional
[5] = target: SUMO E1/E2 (Homo sapiens, UniProt P63279+Q9UBE0+Q9UBT2); assay: SAR analysis of SUMOylation using HTRF in an in-Vitro dose response assay. [Related pubchem assays (depositor defined):AID2006, AID2011, AID2018, AID2069, AID2658]; assay type: functional
Chain of SUMO E1/E2 (Q9UBE0 whole entry): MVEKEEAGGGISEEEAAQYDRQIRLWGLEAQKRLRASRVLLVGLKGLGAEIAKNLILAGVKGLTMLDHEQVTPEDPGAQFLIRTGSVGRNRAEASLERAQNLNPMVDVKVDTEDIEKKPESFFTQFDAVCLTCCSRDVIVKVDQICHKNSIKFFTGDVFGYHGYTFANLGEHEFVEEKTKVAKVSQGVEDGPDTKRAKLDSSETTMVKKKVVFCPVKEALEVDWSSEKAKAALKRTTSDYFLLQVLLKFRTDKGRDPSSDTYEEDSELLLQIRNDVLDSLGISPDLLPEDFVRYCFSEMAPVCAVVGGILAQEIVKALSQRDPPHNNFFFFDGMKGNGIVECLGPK
Chain of SUMO E1/E2 (Q9UBT2 whole entry): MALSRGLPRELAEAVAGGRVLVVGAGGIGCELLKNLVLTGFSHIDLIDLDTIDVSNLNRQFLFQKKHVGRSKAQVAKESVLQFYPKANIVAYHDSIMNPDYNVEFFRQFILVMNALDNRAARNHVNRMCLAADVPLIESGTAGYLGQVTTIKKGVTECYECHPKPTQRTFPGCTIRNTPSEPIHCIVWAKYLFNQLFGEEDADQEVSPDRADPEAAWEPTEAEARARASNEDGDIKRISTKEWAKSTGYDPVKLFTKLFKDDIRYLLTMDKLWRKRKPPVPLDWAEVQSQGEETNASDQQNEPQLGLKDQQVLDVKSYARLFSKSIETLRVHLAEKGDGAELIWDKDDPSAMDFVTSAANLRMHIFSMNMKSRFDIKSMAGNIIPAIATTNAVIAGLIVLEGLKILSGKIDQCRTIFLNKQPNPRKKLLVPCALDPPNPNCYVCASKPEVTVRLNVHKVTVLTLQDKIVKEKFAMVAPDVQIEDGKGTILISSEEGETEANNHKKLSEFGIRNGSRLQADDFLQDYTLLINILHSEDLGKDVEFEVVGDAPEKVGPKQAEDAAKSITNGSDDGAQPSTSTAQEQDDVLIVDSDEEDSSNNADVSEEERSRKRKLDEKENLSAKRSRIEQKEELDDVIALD
Chain of SUMO E1/E2 (P63279 whole entry): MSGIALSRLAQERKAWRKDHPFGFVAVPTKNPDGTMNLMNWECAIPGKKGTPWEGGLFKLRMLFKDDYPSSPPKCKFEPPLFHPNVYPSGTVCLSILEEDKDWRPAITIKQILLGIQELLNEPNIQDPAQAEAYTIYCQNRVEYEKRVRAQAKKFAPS

[6] = target: T2, Voltage-gated N-type calcium channel alpha-1B subunit/Amyloid beta A4 precursor protein-binding family A member 1 (Homo sapiens, UniProt Q00975+Q02410); assay: disruptors of Mint-PDZ/N-type channel peptide interaction – biochemical, HTRF, set 2, SAR follow-up (AID 434980); assay type: functional
T2 sequence (Q00975 whole entry): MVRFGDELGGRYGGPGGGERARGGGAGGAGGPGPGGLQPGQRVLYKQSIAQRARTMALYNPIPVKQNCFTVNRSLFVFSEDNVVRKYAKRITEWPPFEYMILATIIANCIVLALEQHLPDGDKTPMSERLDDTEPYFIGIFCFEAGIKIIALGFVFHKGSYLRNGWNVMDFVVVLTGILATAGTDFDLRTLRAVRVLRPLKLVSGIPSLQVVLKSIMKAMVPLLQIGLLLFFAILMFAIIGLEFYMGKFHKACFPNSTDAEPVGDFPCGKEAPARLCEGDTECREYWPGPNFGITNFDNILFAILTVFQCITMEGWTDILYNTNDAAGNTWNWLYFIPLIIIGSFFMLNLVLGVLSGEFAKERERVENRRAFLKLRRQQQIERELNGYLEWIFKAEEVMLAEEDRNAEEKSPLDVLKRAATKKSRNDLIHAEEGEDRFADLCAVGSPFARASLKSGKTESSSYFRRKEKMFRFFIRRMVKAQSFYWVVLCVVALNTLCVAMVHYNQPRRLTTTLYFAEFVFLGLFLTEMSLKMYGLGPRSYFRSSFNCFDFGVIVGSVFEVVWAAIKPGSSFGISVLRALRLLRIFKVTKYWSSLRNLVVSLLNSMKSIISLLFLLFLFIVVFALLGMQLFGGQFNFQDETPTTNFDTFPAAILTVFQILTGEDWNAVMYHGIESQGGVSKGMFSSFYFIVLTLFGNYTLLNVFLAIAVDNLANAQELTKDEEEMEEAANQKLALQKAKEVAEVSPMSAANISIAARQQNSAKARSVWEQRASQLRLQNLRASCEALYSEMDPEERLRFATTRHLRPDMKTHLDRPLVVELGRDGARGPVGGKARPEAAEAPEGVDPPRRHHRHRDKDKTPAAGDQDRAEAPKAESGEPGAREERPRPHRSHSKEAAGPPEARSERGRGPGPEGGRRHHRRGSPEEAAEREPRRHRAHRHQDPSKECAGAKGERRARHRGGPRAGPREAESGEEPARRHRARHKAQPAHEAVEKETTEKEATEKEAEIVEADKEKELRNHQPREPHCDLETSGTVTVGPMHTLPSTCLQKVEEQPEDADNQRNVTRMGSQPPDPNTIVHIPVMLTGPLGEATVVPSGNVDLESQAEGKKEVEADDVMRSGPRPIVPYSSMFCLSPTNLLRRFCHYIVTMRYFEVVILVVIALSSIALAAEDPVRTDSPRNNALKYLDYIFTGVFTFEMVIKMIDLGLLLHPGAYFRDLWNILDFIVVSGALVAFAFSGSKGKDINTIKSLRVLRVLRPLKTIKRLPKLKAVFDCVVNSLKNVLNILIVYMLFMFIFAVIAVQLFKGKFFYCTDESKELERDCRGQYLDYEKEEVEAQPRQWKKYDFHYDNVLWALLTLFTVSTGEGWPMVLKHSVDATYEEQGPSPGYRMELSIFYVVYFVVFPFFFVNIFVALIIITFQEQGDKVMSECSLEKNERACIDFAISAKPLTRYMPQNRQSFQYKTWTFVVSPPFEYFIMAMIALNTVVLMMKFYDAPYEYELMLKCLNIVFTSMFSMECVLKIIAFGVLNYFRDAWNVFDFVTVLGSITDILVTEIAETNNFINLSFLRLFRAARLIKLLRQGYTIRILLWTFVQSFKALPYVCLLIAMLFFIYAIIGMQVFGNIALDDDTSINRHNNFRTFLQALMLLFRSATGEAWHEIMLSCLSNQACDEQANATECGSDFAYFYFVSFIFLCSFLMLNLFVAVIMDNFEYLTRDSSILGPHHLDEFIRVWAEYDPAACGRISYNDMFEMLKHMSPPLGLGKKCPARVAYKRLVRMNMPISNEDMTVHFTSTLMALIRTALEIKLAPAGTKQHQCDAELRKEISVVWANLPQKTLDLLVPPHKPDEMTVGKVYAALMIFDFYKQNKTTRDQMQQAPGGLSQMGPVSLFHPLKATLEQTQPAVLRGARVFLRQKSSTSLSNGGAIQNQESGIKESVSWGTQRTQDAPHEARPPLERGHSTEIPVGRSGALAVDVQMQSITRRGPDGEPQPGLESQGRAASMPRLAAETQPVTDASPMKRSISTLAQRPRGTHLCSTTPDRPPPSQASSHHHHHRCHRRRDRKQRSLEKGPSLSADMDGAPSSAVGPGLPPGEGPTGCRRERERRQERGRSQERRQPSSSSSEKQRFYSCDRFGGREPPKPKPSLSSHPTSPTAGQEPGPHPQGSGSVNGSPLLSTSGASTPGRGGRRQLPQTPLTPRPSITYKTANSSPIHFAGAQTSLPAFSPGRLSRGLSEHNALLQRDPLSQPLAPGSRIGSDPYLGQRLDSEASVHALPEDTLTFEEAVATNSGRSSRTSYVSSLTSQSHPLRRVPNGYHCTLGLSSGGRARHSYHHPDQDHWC
T2 sequence (Q02410 whole entry): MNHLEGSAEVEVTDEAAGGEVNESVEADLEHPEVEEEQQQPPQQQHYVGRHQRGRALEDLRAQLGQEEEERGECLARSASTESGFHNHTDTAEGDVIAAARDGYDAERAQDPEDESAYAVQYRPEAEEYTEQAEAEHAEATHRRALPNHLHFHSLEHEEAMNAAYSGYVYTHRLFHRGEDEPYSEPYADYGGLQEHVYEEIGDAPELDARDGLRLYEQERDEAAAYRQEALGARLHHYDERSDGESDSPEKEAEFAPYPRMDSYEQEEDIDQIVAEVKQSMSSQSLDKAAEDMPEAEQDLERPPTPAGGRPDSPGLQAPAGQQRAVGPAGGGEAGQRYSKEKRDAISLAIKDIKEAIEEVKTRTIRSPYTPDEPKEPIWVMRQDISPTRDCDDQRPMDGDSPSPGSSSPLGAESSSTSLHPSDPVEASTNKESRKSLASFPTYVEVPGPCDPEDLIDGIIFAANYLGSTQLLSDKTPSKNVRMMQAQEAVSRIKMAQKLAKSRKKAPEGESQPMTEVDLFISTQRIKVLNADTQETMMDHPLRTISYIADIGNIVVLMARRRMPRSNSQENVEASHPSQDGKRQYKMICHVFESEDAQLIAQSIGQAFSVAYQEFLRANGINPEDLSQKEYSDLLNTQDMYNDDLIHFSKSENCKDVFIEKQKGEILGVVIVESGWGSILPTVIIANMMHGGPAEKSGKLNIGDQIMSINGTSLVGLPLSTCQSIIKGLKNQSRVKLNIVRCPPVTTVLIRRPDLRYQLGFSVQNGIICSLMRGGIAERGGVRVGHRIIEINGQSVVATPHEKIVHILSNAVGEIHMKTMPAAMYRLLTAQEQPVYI

[7] = target: T2, Voltage-gated N-type calcium channel alpha-1B subunit/Amyloid beta A4 precursor protein-binding family A member 1; assay: disruptors of Mint-PDZ/N-type channel peptide interaction – biochemical, HTRF, SAR follow-up (AID 2489); assay type: functional
[8] = tested on: HEK293; assay: SAR analysis of compounds that are cytotoxic to HEK293 - Set 3. [Related pubchem assays (depositor defined):AID1575, AID1578, AID1848, AID1849, AID2001, AID2333, AID2334, AID2335, AID2337, AID2469]; assay type: functional, cell-based; settings: Homo sapiens
[9] = target: Nucleotide-binding oligomerization domain-containing protein 2 (Homo sapiens, UniProt Q9HC29); assay: NOD2 signaling inhibitors, analog potency, SAR follow-up, cell-based, set 3 (AID 2799); assay type: functional
[10] = target: Nucleotide-binding oligomerization domain-containing protein 1 (Homo sapiens, UniProt Q9Y239); assay: SAR analysis of compounds that inhibit NOD1 - Set 3. [Related pubchem assays (depositor defined):AID1566, AID1575, AID1578, AID1849, AID1852, AID2333, AID2335, AID2466]; assay type: functional
[11] = target: Tumor necrosis factor (Homo sapiens, UniProt P01375); assay: TNFa-triggered NF-kB activation inhibitors, SAR follow-up, cell-based, set 3 (AID 2801); assay type: functional
Chain of Tumor necrosis factor (P01375 whole entry): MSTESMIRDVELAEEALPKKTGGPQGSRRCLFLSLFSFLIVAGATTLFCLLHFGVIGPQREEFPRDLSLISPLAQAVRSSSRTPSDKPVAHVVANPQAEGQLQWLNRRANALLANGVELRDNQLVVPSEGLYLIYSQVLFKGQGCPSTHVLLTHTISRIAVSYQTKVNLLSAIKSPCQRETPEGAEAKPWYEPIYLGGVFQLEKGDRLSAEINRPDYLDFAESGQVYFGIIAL

[12] = target: T3, Tyrosine-protein phosphatase non-receptor type 22 (Homo sapiens, UniProt Q9Y2R2); assay type: functional
T3 sequence (Q9Y2R2 whole entry): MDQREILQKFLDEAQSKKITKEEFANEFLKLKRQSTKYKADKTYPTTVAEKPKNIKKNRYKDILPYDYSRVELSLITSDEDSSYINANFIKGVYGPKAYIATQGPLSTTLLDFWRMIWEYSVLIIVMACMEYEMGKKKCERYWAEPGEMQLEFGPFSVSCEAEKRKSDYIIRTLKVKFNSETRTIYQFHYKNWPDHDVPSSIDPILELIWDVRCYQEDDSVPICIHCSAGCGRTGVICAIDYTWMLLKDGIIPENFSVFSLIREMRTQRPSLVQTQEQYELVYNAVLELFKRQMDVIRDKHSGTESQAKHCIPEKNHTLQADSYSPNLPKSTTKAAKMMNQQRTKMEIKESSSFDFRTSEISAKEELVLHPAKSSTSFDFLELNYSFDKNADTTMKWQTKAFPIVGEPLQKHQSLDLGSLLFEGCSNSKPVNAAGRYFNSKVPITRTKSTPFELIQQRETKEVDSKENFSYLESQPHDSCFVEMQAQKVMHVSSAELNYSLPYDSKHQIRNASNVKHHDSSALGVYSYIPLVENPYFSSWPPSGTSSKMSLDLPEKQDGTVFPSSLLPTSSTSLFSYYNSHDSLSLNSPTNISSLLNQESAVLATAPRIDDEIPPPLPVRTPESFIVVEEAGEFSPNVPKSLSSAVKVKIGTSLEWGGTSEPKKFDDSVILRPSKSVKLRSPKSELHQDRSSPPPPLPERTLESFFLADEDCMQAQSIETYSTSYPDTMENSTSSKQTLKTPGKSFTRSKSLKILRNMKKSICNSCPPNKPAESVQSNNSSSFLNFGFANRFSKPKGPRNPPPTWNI

[13] = target: Tyrosine-protein phosphatase non-receptor type 7 (Homo sapiens, UniProt P35236); assay type: functional
Chain of Tyrosine-protein phosphatase non-receptor type 7 (P35236 whole entry): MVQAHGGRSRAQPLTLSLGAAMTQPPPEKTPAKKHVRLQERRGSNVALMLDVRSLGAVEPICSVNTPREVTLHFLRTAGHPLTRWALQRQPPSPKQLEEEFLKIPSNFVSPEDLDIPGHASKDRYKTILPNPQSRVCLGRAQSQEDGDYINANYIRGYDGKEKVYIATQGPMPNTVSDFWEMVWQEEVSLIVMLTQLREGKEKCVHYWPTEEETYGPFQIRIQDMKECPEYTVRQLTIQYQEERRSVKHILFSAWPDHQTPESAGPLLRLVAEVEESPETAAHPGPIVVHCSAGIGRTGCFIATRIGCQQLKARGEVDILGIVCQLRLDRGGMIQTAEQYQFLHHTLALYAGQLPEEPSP

[14] = target: T3, Tyrosine-protein phosphatase non-receptor type 22; assay type: functional; remark: listed apart in the source

IC50 [1]: 13.4 µM (active)
IC50 [2]: 24.3 µM (active)
IC50 [3]: > 20 µM (inactive)
EC50 [4]: > 100 µM (inactive)
Structure (SMILES): O=C(O)CC(C(=O)O)N1C(=O)/C(=C/c2ccc(-c3nc4ccccc4s3)o2)SC1=S (centres undefined)

IC50 [5]: 38.6 µM (active)
IC50 [6]: 23 µM (active)
IC50 [7]: > 56.8 µM (inactive)
Structure (SMILES): COc1ccccc1CNC(=O)CCOC(=O)c1cc(-c2ccco2)nc2ccccc12

Structure (SMILES): CN(C(=O)c1ccccc1)C(c1ccccc1)c1c[nH]c2ccccc12 (centres undefined)
IC50 [8]: > 20 µM (inactive)
IC50 [9]: 12.4 µM (active)
IC50 [10]: > 20 µM (inactive)
IC50 [11]: > 20 µM (inactive)

IC50 [12]: > 79.4 µM (inactive)
IC50 [13]: > 79.4 µM (inactive)
IC50 [14]: > 79.4 µM (inactive)
Structure (SMILES): O=C1C=C(NCCNc2c(F)c(F)c(CO)c(F)c2F)CCC1
